Laboratory results: article PMC12187842, “A novel molecule targeting neutrophil-mediated B-1a cell trogocytosis attenuates sepsis-induced acute lung injury” (Frontiers in Immunology, 2025)

Key:
Format in all cases: in vivo, mouse
[1] = test system: CLP-induced sepsis in C57BL/6 mice; assay: Lung wet-to-dry weight ratio in CLP mice; conditions: C11 10 mg/kg i.p. once after CLP (Figure 5 legend: 10 μg/kg); 20 h; n = 5-7/group; vs. CLP vehicle
Text: (§1) Mice were anesthetized with 2% isoflurane in oxygen, and sepsis was induced via cecal ligation and puncture (CLP) ([26]). A 1-cm midline abdominal incision was made to expose the cecum, which was ligated 1-cm proximal to its end using a 4-0 silk suture. The cecum then was perforated with a single through-and-through puncture using a 22-gauge needle, positioned midway between the ligation and the tip of the cecum. A small amount of fecal material was gently extruded from the perforation sites to confirm the patency of the punctures, and the cecum was subsequently returned to the peritoneal cavity. Following abdominal closure, resuscitation was provided via subcutaneous (s.c.) injection of 500 µL normal saline. Postoperative analgesia was administered with a single dose of 0.1 mg/kg buprenorphine. To evaluate the effects of the therapeutic peptide (named Compound 11 or C11) (synthesized by GenScript USA Inc., Piscataway, NJ) on sepsis, C57BL/6 mice were assigned to three experimental groups: the Sham group, the CLP group treated with vehicle, and the CLP group treated with C11 (10 mg/kg). C11 was dissolved in DMSO (10 mg/mL) and diluted with saline to a total volume of 500 µL. […]
Lung wet and dry weights were measured as previously described ([30]). […] The wet-to-dry weight ratio was calculated as an indicator of pulmonary edema.

B-1a cells = assay: B-1a cell numbers in pleural and peritoneal cavities of CLP mice by flow cytometry
Text: as §1, with “buprenorphine.” for “buprenorphine. To evaluate the effects of the therapeutic peptide (named Compound 11 or C11) (synthesized by GenScript USA Inc., Piscataway, NJ) on sepsis, C57BL/6 mice were assigned to three experimental groups: the Sham group, the CLP group treated with vehicle, and the CLP group treated with C11 (10 mg/kg). C11 was dissolved in DMSO (10 mg/mL) and diluted with saline to a total volume of 500 µL.”
B-1a cell and neutrophil populations were analyzed by flow cytometry ([9], [11], [28]). […] After that, B-1a cells (CD45^+CD19^+B220^lo/-CD5^+CD23^-) ([6], [28]), and neutrophils (CD45^+Ly6G^+) were detected by flow cytometry. Fc block (Cat. No. 156604, BioLegend) was used to prevent nonspecific antibody binding and the cell viability was determined using a Zombie Aqua Fixable Viability Kit (BioLegend). […]

[2] = test system: CLP-induced sepsis in C57BL/6 mice; assay: Plasma pro-inflammatory cytokines in CLP mice by ELISA; conditions: C11 10 mg/kg i.p. once after CLP (Figure 5 legend: 10 μg/kg); 20 h; n = 5-7/group; p < 0.05 vs. CLP vehicle
Text: as §1, with “buprenorphine.” for “buprenorphine. To evaluate the effects of the therapeutic peptide (named Compound 11 or C11) (synthesized by GenScript USA Inc., Piscataway, NJ) on sepsis, C57BL/6 mice were assigned to three experimental groups: the Sham group, the CLP group treated with vehicle, and the CLP group treated with C11 (10 mg/kg). C11 was dissolved in DMSO (10 mg/mL) and diluted with saline to a total volume of 500 µL.”
Blood was collected by heart puncture. Plasma levels of organ injury markers (ALT: alanine transaminase, AST: aspartate transferase, and LDH: lactate dehydrogenase) were assessed by using colorimetric enzymatic assays (MedTest Dx, Canton, MI) according to the manufacturer’s protocol. Plasma levels of pro-inflammatory cytokines (TNFα: tumor necrosis factor α, and IL-6: interleukin-6) were measured by using mouse-specific ELISA kits (BD Biosciences).

[3] = test system: CLP-induced sepsis in C57BL/6 mice; assay: TUNEL assay of lung tissue in CLP mice; conditions: C11 10 mg/kg i.p. once after CLP (Figure 5 legend: 10 μg/kg); 20 h; n = 5-7/group; vs. CLP vehicle
Text: as §1, with “buprenorphine.” for “buprenorphine. To evaluate the effects of the therapeutic peptide (named Compound 11 or C11) (synthesized by GenScript USA Inc., Piscataway, NJ) on sepsis, C57BL/6 mice were assigned to three experimental groups: the Sham group, the CLP group treated with vehicle, and the CLP group treated with C11 (10 mg/kg). C11 was dissolved in DMSO (10 mg/mL) and diluted with saline to a total volume of 500 µL.”
To determine cellular apoptosis we used a TUNEL assay kit (Roche Diagnostics, Indianapolis, IN) using 5-μm lung sections by following the manufacturer’s instructions. […] The TUNEL-positive cells were assessed by LSM900 confocal microscope (Zeiss) microscopes. The number of apoptotic cells/fields was quantified using ImageJ, Fiji software (version 1.53k).

Substance: 126-ELKNRTVSWFS-136 [Compound C11]
- sepsis-induced pulmonary edema (lung wet-to-dry ratio) [1]: effectively reduced
- B-1a cell numbers in the pleural and peritoneal cavities (B-1a cells; C11 10 mg/kg i.p. once immediately after CLP, 20 h after surgery, flow cytometry, n = 5-6/group, p < 0.05 vs. C11 (-)): effectively preserved
- restoration of B-1a cell numbers in sepsis (B-1a cells; discussion, blocking of Siglec-G/CD47 interaction by C11 in CLP mice): did not fully restore B-1a cell numbers
- plasma IL-6 [2]: significantly reduced
- plasma TNF-α [2]: significantly reduced
- lung apoptosis (TUNEL+ cells) [3]: reduced tissue damage and apoptosis
